Data published in article PMC9065678, “BI 1015550 is a PDE4B Inhibitor and a Clinical Drug Candidate for the Oral Treatment of Idiopathic Pulmonary Fibrosis” (Frontiers in Pharmacology, 2022).
Marks after values point to notes of the source that are not given here.

Key:
PDE2A = molecular target: T1, PDE2A (Homo sapiens, UniProt O00408); assay: PDE2A inhibition screen at Eurofins Cerep; assay type: biochemical; settings: screened at Eurofins Cerep
T1 construct: Eurofins Cerep

PDE6 = PDE6 inhibition screen at Eurofins Cerep; assay type: biochemical, bovine; settings: screened at Eurofins Cerep
[1] = system: silica-induced lung fibrosis; assay: Silica-induced lung inflammation and fibrosis in the mouse; assay type: in vivo; settings: mice
Procedure: BI 1015550 was given at doses of 0.25, 0.75, and 2.5 mg/kg b.i.d. in Natrosol 0.5% (10 mL/kg) starting from day 10 after silica instillation until day 30 (therapeutic regimen). 8-week-old BL6 mice (mixed sex, Janvier Labs, Le Genest-Saint-Isle, France) were used. Details of the experimental methods are described elsewhere ([Lo Re et al., 2010]). Briefly, mice received silica particles at 2.5 mg/mouse by intranasal instillation. Control mice received the respective saline solution by intranasal instillation. Mice were killed 30 days after silica administration and macroscopic changes were recorded at post-mortem analysis. Lung weight was measured, BALF for total cell and differential cell counts as well as myeloperoxidase (MPO) activity and keratinocyte-derived cytokine (KC, the counterpart of human GRO protein) determination was generated, and lung histology (staining with HE and chromotrope-aniline blue with semi-quantitative analysis for the estimation of inflammation, granuloma, and fibrosis scores was done.

[2] = 0.25 mg/kg b.i.d. oral day 10–30
[3] = 0.75 mg/kg b.i.d. oral day 10–30
[4] = 2.5 mg/kg b.i.d. oral day 10–30

T1 sequence (O00408 whole entry): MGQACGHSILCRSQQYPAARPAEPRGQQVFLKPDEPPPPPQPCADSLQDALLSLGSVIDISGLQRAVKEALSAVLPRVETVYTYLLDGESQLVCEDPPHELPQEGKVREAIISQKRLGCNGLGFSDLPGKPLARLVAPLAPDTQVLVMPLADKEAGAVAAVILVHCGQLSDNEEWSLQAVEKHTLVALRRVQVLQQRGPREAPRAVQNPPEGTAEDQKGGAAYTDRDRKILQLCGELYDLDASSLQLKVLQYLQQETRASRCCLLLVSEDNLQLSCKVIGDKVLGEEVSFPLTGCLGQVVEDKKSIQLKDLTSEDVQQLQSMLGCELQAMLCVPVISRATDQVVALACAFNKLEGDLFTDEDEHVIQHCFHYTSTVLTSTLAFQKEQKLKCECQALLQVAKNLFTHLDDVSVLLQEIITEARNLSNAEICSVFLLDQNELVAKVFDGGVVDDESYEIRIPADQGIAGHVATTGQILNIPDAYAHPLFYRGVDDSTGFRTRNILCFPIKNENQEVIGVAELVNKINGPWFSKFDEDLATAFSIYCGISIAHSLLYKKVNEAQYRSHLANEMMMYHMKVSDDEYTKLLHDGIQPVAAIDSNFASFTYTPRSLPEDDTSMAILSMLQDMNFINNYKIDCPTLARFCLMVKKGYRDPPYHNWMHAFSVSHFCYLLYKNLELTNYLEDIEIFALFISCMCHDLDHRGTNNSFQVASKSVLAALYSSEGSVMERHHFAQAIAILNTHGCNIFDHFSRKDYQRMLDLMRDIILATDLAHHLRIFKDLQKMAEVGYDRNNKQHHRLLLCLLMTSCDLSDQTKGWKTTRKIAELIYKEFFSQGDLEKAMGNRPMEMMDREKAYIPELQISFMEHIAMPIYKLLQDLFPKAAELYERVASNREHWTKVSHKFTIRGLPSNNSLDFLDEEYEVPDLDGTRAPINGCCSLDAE

[O-][S+]1CCc2nc(N3CCC(c4ncc(Cl)cn4)CC3)nc(NC3(CO)CCC3)c21 (centres unmarked) [BI 1015550]
Inhibition of human PDE2A (PDE2A): did not inhibit
Inhibition of bovine PDE6 (PDE6): did not inhibit
Fibrosis score, % change related to control animals [1, 2]: 5%
Granuloma score, % change related to control animals [1, 2]: –16%
Inflammation score, % change related to control animals [1, 2]: –4%
KC in BALF, % change related to control animals [1, 2]: 4%
Lung weight, % change related to control animals [1, 2]: –57%
Lymphocytes in BALF, % change related to control animals [1, 2]: –18%
MPO in BALF, % change related to control animals [1, 2]: –2%
Macrophages in BALF, % change related to control animals [1, 2]: –29%
Neutrophils in BALF, % change related to control animals [1, 2]: –35%
Total cells in BALF, % change related to control animals [1, 2]: –27%
Fibrosis score, % change related to control animals [1, 3]: –10%
Granuloma score, % change related to control animals [1, 3]: –11%
Inflammation score, % change related to control animals [1, 3]: 4%
KC in BALF, % change related to control animals [1, 3]: –39%
Lung weight, % change related to control animals [1, 3]: –46%
Lymphocytes in BALF, % change related to control animals [1, 3]: 49%
MPO in BALF, % change related to control animals [1, 3]: –22%
Macrophages in BALF, % change related to control animals [1, 3]: –11%
Neutrophils in BALF, % change related to control animals [1, 3]: 8%
Total cells in BALF, % change related to control animals [1, 3]: –13%
Fibrosis score, % change related to control animals [1, 4]: –15%
Granuloma score, % change related to control animals [1, 4]: –32%
Inflammation score, % change related to control animals [1, 4]: –19%
KC in BALF, % change related to control animals [1, 4]: –27%
Lung weight, % change related to control animals [1, 4]: –46%
Lymphocytes in BALF, % change related to control animals [1, 4]: –12%
MPO in BALF, % change related to control animals [1, 4]: –34%
Macrophages in BALF, % change related to control animals [1, 4]: –38* %
Neutrophils in BALF, % change related to control animals [1, 4]: –46* %
Total cells in BALF, % change related to control animals [1, 4]: –28%
